Results reported in US8628961B2, “Small molecule antagonists of phosphatidylinositol-3,4,5-triphosphate (PIP3) and uses thereof” (Tufts University, priority 2010, dated 2014).

B1: TRAIL: Tumor necrosis factor (TNF)-related apoptosis-inducing ligand, 281 amino acid member of the TNF family of cytokines (protein, UniProt P50591 1-281, looked up)
Tumor necrosis factor ligand …: MAMMEVQGGPSLGQTCVLIVIFTVLLQSLCVAVTYVYFTNELKQMQDKYSKSGIACFLKEDDSYWDPNDEESMNSPCWQVKWQLRQLVRKMILRTSEETISTVQEKQQNISPLVRERGPQRVAAHITGTRGRSNTLSSPNSKNEKALGRKINSWESSRSGHSFLSNLHLRNGELVIHEKGFYYIYSQTYFRFQEEIKENTKNDKQMVQYIYKYTSYPDPILLMKSARNSCWSKDAEYGLYSIYQGGIFELKENDRIFVSVTNEHLIDMDHEASFFGAFLVG

How the values were obtained:
U87MG cells [1] = assay: Combination with Akt kinase inhibitors in U87MG cells (western blot, ATP assay); format: cell-based, human
Protocol: U87MG cells were treated with 100 μM PIT-1, or 10 μM Akt inhibitor VIII (Calbiochem) or Akt inhibitor (Calbiochem), or 100 μM PIT-1 together with 10 μM Akt inhibitor VIII or Akt inhibitor, for 12 hr and then phosphorylation events were evaluated by western blot.

Akt PH domain [2] = molecular target: T1, Akt PH domain (Homo sapiens (Human), UniProt P31749); assay: PH domain translocation assay (GFP fusion, plasma membrane); format: cell-based; conditions: PDGF stimulation
Protocol: Cells were transfected with the corresponding GFP-fusion vectors, serum starved overnight, and incubated with 100 μM PITs or PIT-1 is for 2 hr, followed by stimulation with 100 ng/ml PDGF or 250 ng/ml PMA for 5 min. The translocation was analyzed using fluorescent microscope and was quantitated by counting the number of cells with translocated PH domains in five random fields.
To begin characterizing cellular activity of PITs, a PH domain translocation assay was performed, measuring PIP3-induced association of GFP-fused PH domains with the plasma membrane. […] Varnai P et al. (1999) J Biol Chem 274:10983-9. Several PH-domain-containing proteins, which are known to bind PIP3 specifically and efficiently, were examined. […] Oikawa T et al. (2004) Nat Cell Biol 6:420-6.
Target sequence in this assay (P31749 5-108): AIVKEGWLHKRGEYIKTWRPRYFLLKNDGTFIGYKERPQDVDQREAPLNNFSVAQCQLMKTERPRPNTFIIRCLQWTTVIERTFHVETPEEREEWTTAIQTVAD

PDK1 PH domain = PDK1 PH domain (Homo sapiens (Human), UniProt O15530); assay: FP PIP3/PDK1 PH domain binding assay; conditions: 15 nM TMR-conjugated PIP3, 100 nM PDK1 PH domain, 30 min
Excerpt: (§1) In order to identify compounds that disrupt the interaction between PIP3 and PH domains, a high-throughput fluorescence polarization (FP)-binding assay was developed using recombinant 1-123 amino acid N-terminal fragment of human Akt1 (also referred to herein simply as Akt), encompassing the PH domain (PH123 protein), and fluorescent […] PIP3 molecule. The amino acid sequence of human Akt1 is publicly available as, for example, GenBank Accession No. NP_001014432.1 (SEQ ID NO:1), and the corresponding DNA sequence is publicly available as, for example, GenBank Accession No. NM_001014432. Briefly, 5 μM recombinant GST fusion proteins containing 1-123 a.a. N-terminal fragment of human Akt1 (PH 123) or 100 nM 441-551 a.a. region of human PDK1 were incubated with 15 nM TMR-labeled PIP3, PIP2, or PIP5 in buffer containing 50 mM Tris-HCl (pH 7.5), 150 mM NaCl, and 5 mM b-ME for 15 min at room temperature in the dark. FP values were determined using Wallac Victor 3 plate reader. For the primary screen, 50,000 diverse small molecules from Harvard Institute of Chemistry and Cell Biology were screened (iccb.med.harvard.edu). Incubations were carried out for 1 hr. For secondary assays, PIT compounds were added at various concentrations (6.25, 12.5, 25, 50, 100, 150 and 200 μM), followed by a 30 min incubation. The inhibition rates were calculated as inhibition rate=[1−(compound-treated group/control group)]×100%, and IC50 value was determined using Origin6 software (MicroCal, LLC, Northampton, Mass.).

GRP1 PH domain = GRP1 PH domain (Homo sapiens, UniProt O43739); assay: FP PIP3/GRP1 PH domain binding assay; conditions: 15 nM TMR-conjugated PIP3, 100 nM GRP1 PH domain, 30 min
U87MG cells [3] = assay: cells; format: cell-based; conditions: for IC50: Homo sapiens, U-87 MG, U87MG cells, 48 hr, ATP assay, read-out: Cell Viability IC50
Protocol: Based on the critical role of PIP3-dependent […] signaling in the regulation of cell survival, the effect of PIT-1 on the cancer cell viability was tested. Cancer cells were seeded into 96-well plates (white plates for ATP assay; black plates for fluorescent assay; clear plates for MTS assay) at the density of 5-10×10^3 cells per well in 100 μl of the appropriate media. Compounds were added at a series of concentrations and incubated for different times. For the ATP assay, a luminescence-based commercial kit (CellTiter-Glo, Promega, Madison, Wis.) was used. Thirty microliters of cell lysis/ATP detection reagent was added to each well, mixed for 10 min at room temperature, and the luminescence was measured using a Wallac Victor 3 plate reader (Perkin-Elmer, Wellesley, Mass.). For the MTS assay, a CellTiter 96 AQueous Non-Radioactive Cell Proliferation Assay Kit (Promega, Madison, Wis., USA) was used. Twenty microliters of the combined MTS/PMS solution was added into each well, incubated for 4 hr at 37° C., and the absorbance at 490 nm was measured using a Wallac Victor 3 plate reader. For the Sytox cell death assay, measuring loss of plasma membrane integrity, cells were incubated with 1 μM Sytox Green reagent (Molecular Probes, Eugene, Oreg.) for 30 min at 37° C. and the fluorescence intensity was measured using Wallac Victor 3 plate reader with excitation at 485 nm and emission at 545 nm. Next, 5 μl of 20% (v/v) Triton X-100 solution was added to each well and incubated for 1 hr at 37° C., and the signal was measured again. The ratio of values (percentage of dead cells in each well) before and after Triton X-100 treatment was calculated and normalized to the relevant controls not subjected to the cytotoxic stimuli. IC50 values were determined using Origin6 software (MicroCal, LLC, Northampton, Mass.).
To measure induction of cell death by PIT-1 derivatives, U87MG cells were incubated with PITs (1.56-300 μM) for 48 hr. Cell viability was determined using ATP assay.

Akt PH domain [4] = molecular target: T1, Akt PH domain; assay: Fluorescence polarization (FP) PIP3/Akt PH domain binding assay; conditions: for IC50: 15 nM TMR-conjugated PIP3, PITs 6.25-200 μM, 30 min
Excerpt: as §1
Target sequence in this assay (P31749 1-123): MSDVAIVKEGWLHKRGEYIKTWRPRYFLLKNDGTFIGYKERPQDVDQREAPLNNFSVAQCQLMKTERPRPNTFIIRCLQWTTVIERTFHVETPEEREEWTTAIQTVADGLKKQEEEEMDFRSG

PI3K-PDK1-Akt pathway = assay: PIP3-regulated phosphorylation events in U87MG cells; format: cell-based, human
Protocol: The effect of PIT-1 on PIP3-mediated signaling was examined in U87MG glioblastoma cells, which show elevated basal levels of PIP3 due to the loss of PTEN. Pore N et al. (2003) Cancer Res 63:236-41.

U87MG cells [5] = assay: Sensitization of U87MG cells to TRAIL, ATP assay; format: cell-based, human
Protocol: FIG. 10 is a bar graph depicting that PITs, as well as Akt inhibitor VIII, sensitize U87MG cells to killing by TRAIL. U87MG cells were incubated with 50 μM PIT-1, PIT-2, PIT-1i-1 or 10 μM Akt inhibitor VIII in the presence or absence of 10 ng/ml TRAIL for 48 hr, followed by cell viability analysis using ATP assay.
Upregulation of PI3K/Akt signaling is an important mechanism of chemoresistance of cancer cells. Blume-Jensen P et al. (2001) Nature 411:355-65; Osaki M et al. (2004) Apoptosis 9:667-76. […] Puduvalli V K et al. (2005) Apoptosis 10:233-43 TRAIL represents a particularly promising anti-cancer agent due to its intrinsic selectivity towards cancer cells which is associated with the expression of the decoy receptors by many (but not all) normal cells. Abe K et al. (2000) Ann NY Acad Sci 926:52-63. […] Oka N et al. (2005) Cancer Res 65:7546-53.

PDK1 PH domain, sequence (O15530 441-551): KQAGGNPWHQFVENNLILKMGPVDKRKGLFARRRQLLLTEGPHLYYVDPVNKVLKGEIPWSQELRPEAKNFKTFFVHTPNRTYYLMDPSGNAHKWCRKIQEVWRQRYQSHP

Molecule	combination of Akt inhibitors VIII and X (U87MG cells [1])	plasma membrane translocation of Akt PH domain (Akt PH domain [2])	melting point [°C]	IC50 (PDK1 PH domain) [µM]	IC50 (GRP1 PH domain) [µM]	IC50 (U87MG cells [3]) [µM]	Akt potency and selectivity compared to PIT-1 (Akt PH domain [4])	IC50 (Akt PH domain [4]) [µM]	PI3K-PDK1-Akt signaling in U87MG cells (PI3K-PDK1-Akt pathway)	cytotoxicity / reduction of cancer cell viability relative to other PITs (U87MG cells [3])	sensitivity of U87MG cells to TRAIL alone (U87MG cells [5])
CCN(CC)CCCCN1c2ccccc2Oc2ccc(Cl)cc21 [Akt inhibitor X]	no additive effect	Neither Akt inhibitor X nor allosteric inhibitor VIII blocked membrane translocation									
Cc1cc(C)cc(C(=O)NC(=S)Nc2c(O)cc(C)c(Cl)c2C)c1 [PIT-3, N-(3-Chloro-6-hydroxy-2,4-dimethylphenylcarbamothioyl)-3,5-dimethylbenzamide]			185 to 186	107 ± 3.9	> 200	12.4 ± 0.9	improved Akt potency and selectivity compared to PIT-1	17.5 ± 1.6			
Cc1cc(C)cc(C(=O)NC(=S)Nc2cc(C(F)(F)F)ccc2O)c1 [PIT-4, N-(2-Hydroxy-5-(trifluoromethyl)phenylcarbamothioyl)-3,5-dimethylbenzamide]			208 to 209	> 200	> 200	20.7 ± 3.3	improved Akt potency and selectivity compared to PIT-1	22.6 ± 3			
Cc1cc(C)cc(C(=O)NC(=S)Nc2c(O)cc(C(F)(F)F)cc2C(F)(F)F)c1 [PIT-5, N-(2-Hydroxy-4,6-bis(trifluoromethyl)phenylcarbamothioyl)-3,5-dimethylbenzamide]			167 to 168	> 200	> 200	18.8 ± 1.7	improved Akt potency and selectivity compared to PIT-1	20.8 ± 2.5			
Cc1cc(C)cc(C(=O)NC(=S)Nc2c(O)cc(C)c(Br)c2C)c1 [PIT-6, N-(3-Bromo-6-hydroxy-2,4-dimethylphenylcarbamothioyl)-3,5-dimethylbenzamide]			164.5 to 166	> 200	> 200	12.6 ± 2.1	improved Akt potency and selectivity compared to PIT-1	18.1 ± 3.1			
Cc1cc(C)cc(C(=O)NC(=S)Nc2cc(-c3ccccc3)ccc2O)c1 [PIT-7, N-(4-Hydroxybiphenyl-3-ylcarbamothioyl)-3,5-dimethylbenzamide]				52.3 ± 2.3	> 200	6.6 ± 0.3		13.4 ± 2.1	strongest activity	strongest activity	
B1											entirely resistant
